System: Crabgrasses
Test: Herbicidal effect of Karmex D (DCMU) herbicide with or without compound 6 (Example 6)
Assay type: in vivo, crabgrass
Conditions: compound 6, where added, 2000 ppm in the diluted solution
Protocol: Crabgrasses (30 crabgrasses per pot) which were in a trifoliate stage were treated with the above herbicide in a predetermined concentration. 7 days after the treatment, the weight of survival at the aerical part and the percentage herbicidal effect relative to the untreated section (%) were calculated. 50% herbicidal concentration was also determined.
The above-mentioned preparation was diluted with water to have a predetermined concentration.

CCCCCCCCC(CCCCCC)C[N+](C)(C)Cc1ccc(Cl)cc1 (centres unmarked) [compound 6]
herbicidal effect (%) (active ingredient (DCMU) concn. 125 ppm): 39%
herbicidal effect (%) (active ingredient (DCMU) concn. 250 ppm): 55%
herbicidal effect (%) (active ingredient (DCMU) concn. 500 ppm): 77%
herbicidal effect (%) (active ingredient (DCMU) concn. 1000 ppm): 91%
herbicidal effect (%) (active ingredient (DCMU) concn. 2000 ppm): 100%

From patent US4888049A, “Synergist for biocide” (Kao Corporation, priority 1986, dated 1989)
